Assay results as given in article PMC12062363, “Phytochemical analysis and neuroprotective potential of Achillea santolina L. fractions” (Scientific Reports, 2025).

What was measured:
COX-2 enzyme = biological target: T1, COX-2 enzyme (Homo sapiens, UniProt P35354); test: biochemical; type: biochemical; settings: three replicates
T1 sequence (P35354 18-604): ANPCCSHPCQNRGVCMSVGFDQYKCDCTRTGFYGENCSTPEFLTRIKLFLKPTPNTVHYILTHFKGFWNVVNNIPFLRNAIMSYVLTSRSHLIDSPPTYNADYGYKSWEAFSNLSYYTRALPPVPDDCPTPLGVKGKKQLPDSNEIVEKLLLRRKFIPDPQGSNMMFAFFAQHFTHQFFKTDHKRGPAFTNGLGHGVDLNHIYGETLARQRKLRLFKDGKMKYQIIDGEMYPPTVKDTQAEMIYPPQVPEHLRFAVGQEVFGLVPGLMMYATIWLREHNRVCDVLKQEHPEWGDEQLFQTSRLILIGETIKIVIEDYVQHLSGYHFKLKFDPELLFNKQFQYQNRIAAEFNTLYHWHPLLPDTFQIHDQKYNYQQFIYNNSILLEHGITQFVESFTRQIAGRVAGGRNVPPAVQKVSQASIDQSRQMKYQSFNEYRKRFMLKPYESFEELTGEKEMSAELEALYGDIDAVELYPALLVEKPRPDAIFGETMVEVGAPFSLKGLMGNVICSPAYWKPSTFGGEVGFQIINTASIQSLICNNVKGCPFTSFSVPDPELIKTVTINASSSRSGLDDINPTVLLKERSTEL
Procedure: All in vitro determinations were performed in triplicate and reported as mean ± standard deviation. The IC50 values were determined by transforming the concentrations to logarithmic form and applying a non-linear regression equation for inhibitors (log inhibitor) versus the normalized response-variable slope equation. In vitro studies were analyzed using one-way ANOVA and Tukey’s test, with p values under < 0.05 regarded as significant. […] All figures and statistical analyses were generated with GraphPad Prism version 8.0® for Windows (GraphPad Software, San Diego, California USA).
The inhibitory activity of the tested samples against COX-2 enzyme was determined colorimetrically ^6. Celecoxib was used as a reference drug.

5-LOX = biological target: T2, 5-LOX (Homo sapiens, UniProt P09917); test: In vitro lipoxygenase (5-LOX) inhibitory activity; type: biochemical; settings: three replicates
T2 sequence (P09917 1-674): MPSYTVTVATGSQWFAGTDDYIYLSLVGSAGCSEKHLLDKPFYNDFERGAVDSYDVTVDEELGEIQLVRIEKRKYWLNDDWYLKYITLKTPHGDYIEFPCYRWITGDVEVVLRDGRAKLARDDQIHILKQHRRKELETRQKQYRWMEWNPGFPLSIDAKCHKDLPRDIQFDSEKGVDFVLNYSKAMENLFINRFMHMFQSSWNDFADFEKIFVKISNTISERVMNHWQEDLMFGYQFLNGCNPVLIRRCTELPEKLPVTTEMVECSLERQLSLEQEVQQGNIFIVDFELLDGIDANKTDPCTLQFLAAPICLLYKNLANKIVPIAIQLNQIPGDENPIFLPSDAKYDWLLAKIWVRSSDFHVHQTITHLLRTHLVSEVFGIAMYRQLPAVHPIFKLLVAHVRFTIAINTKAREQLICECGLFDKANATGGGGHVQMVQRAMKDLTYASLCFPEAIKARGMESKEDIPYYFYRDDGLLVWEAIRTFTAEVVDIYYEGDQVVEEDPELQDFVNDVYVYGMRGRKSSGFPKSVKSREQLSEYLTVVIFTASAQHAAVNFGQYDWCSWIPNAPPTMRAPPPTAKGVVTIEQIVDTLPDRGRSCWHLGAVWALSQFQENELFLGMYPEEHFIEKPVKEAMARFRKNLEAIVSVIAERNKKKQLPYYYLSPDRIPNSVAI
Procedure: All in vitro determinations were performed in triplicate and reported as mean ± standard deviation. The IC50 values were determined by transforming the concentrations to logarithmic form and applying a non-linear regression equation for inhibitors (log inhibitor) versus the normalized response-variable slope equation. […] All figures and statistical analyses were generated with GraphPad Prism version 8.0® for Windows (GraphPad Software, San Diego, California USA).
The 5-LOX inhibitory activity was determined according to a previous method ^7. […] The IC50 of each tested sample was calculated.

[1] = tested on: cerebral cortex and hippocampus of MSG-treated rats; test: Brain histopathology (H&E) in MSG-induced neurotoxicity in rats; type: in vivo, Wistar rats; settings: standard 30 mg/kg orally, 14 days
Procedure: One day post the last dose, rats were anesthetized using ketamine 90 mg i.p and Blood was drawn from the Orbital sinus[22] followed by euthanizing of all rats[22]. […] The whole brains were expunged, washed with cold saline, wiped with filter paper, and split into two portions(hemispheres): one hemisphere was used for histopathological examinations following formalin fixation, however the other hemisphere was snap-frozen in liquid nitrogen and kept at − 80 °C to be used for biochemical assessment (MDA, GSH and TNF-α) and for RNA extraction. Samples were assayed in triplicates[2].
Brain specimens were preserved in 10% neutral buffered formalin followed by processing in increasing concentrations of ethanol and xylene. […]

[2] = tested on: Tumor necrosis factor alpha; test: TNF-α immunohistochemistry in cerebral cortex, MSG-induced neurotoxicity in rats; type: in vivo, Wistar rats; settings: standard 30 mg/kg orally, 14 days
Procedure: Sixty-three rats were randomly allocated into nine experimental groups (n = 7): Control Group; served as negative control that received distilled water (DW) at the volume of 1 ml/rat orally via an intragastric tube once a day for 14 days. MSG Group, served as control positive where rats received DW at the volume of 0.5 mL/rats orally + 2 g/kg weight MSG dissolved in normal saline at the volume of 0.5 mL/rats orally via an intragastric tube once a day for 14 days[21]. Treated groups received MSG same way as MSG group along with various treatments as following: AS 200, 400 Groups; received Achillea santolina methanolic extract at doses of 200, 400 mg/kg, respectively. MF 200,400; received methylene chloride fraction of Achillea santolina extract with the same two doses and volume suspended in DW, BF 200, 400 received butanol fraction of Achillea santolina extract with the same two doses and volume suspended in DW, and standard group (Std): received Dextromethorphan 30 mg/kg at the volume of 0.5 mL/rats orally.
Tumor necrosis factor alpha was detected in paraffin embedded tissue by immunoperoxidase technique. Briefly, tissue sections were deparaffinized and then incubated in citrate buffer PH 6 for antigen retrieval. […] Area percent of positive staining was measured by Image J software in 3 sections/ group at 200X magnification.

O=c1cc(-c2ccc(O)cc2)oc2cc(O)c([C@@H]3O[C@H](CO)[C@@H](O)[C@H](O)[C@H]3O)c(O)c12 [Isovitexin, Apigenin 6-C-β-glucopyranoside]
COX-2 inhibitory activity IC50 (COX-2 enzyme): most powerful | 5-LOX inhibitory potential IC50 (5-LOX): highest inhibitory potential

O=c1c(O[C@@H]2O[C@H](CO)[C@@H](O)[C@H](O)[C@H]2O)c(-c2ccc(O)cc2)oc2cc(O)cc(O)c12 [Kaempferol-3-O-glucoside, Kaempferol 3-O-β-glucopyranoside]
IC50 (5-LOX; read-out: 5-LOX inhibitory potential IC50): 6.28 ± 0.16 µM

O=c1cc(-c2ccc(O)c(O)c2)oc2cc(O)cc(O)c12 [Luteolin]
IC50 (COX-2 enzyme; read-out: COX-2 inhibitory activity IC50): 12.04 ± 0.08 µM

COc1ccc2c(c1)[C@]13CCCC[C@@H]1[C@H](C2)N(C)CC3 [dextromethorphan, Dextromethorphan]
neuronal degeneration and gliosis, cerebral cortex [1]: mild | neuronal degeneration and gliosis, hippocampus [1]: mild | TNF-α expression in cerebral cortex (immunohistochemistry) [2]: weak
